Test results: paper PMC6364417, “Kinase inhibitor library screening identifies synergistic drug combinations effective in sensitive and resistant melanoma cells” (Journal of Experimental & Clinical Cancer Research : CR, 2019)

Tests used:
Test in all cases: Kinase inhibitor library screening, PrestoBlue cell viability, 1 or 10 μM, 72 h
[1] = tested on: IGR37-GP cells (Dabrafenib-resistant); settings: IGR37 GP, 72 h
IGR37 cells (parental) = settings: IGR37 Parental, 72 h, in %
501Mel cells (parental) = settings: 501Mel Parental, 72 h, in %
Summary of the method: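 Normalised to untreated controls, viability percentages came from PrestoBlue measured on a microplate reader following 72 h incubation with drug. Each line was assayed at least twice.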

[2] = tested on: IGR37-XP cells (Vemurafenib-resistant); settings: IGR37 XP, 72 h
[3] = tested on: A375-GP cells (Dabrafenib-resistant); settings: A375 GP, 72 h; for cell viability, A375 GP, 1μΜ / cell viability, A375 GP, 10μΜ: in %
[4] = tested on: 501Mel-XP cells (Vemurafenib-resistant); settings: 501Mel XP, 72 h, in %
[5] = tested on: 501Mel-GP cells (Dabrafenib-resistant); settings: 501Mel GP, 72 h, in %
[6] = tested on: A375-XP cells (Vemurafenib-resistant); settings: A375 XP, 72 h; for cell viability, A375 XP, 1μΜ / cell viability, A375 XP, 10μΜ: in %
A375 cells (parental) = settings: A375 Parental, 72 h

Row | Compound | cell viability, IGR37 GP, 10μΜ ([1]; 10μΜ) | cell viability, IGR37 Parental, 10μΜ (IGR37 cells (parental); 10μΜ) | cell viability, 501Mel Parental, 1μΜ (501Mel cells (parental); 1μΜ) | cell viability, 501Mel Parental, 10μΜ (501Mel cells (parental); 10μΜ) | cell viability, IGR37 XP, 10μΜ ([2]; 10μΜ) | cell viability, A375 GP, 1μΜ ([3]; 1μΜ) | cell viability, A375 GP, 10μΜ ([3]; 10μΜ) | cell viability, 501Mel XP, 1μΜ ([4]; 1μΜ) | cell viability, 501Mel XP, 10μΜ ([4]; 10μΜ) | cell viability, 501Mel GP, 1μΜ ([5]; 1μΜ) | cell viability, 501Mel GP, 10μΜ ([5]; 10μΜ) | cell viability, A375 XP, 1μΜ ([6]; 1μΜ) | cell viability, A375 XP, 10μΜ ([6]; 10μΜ) | cell viability, A375 Parental, 1μΜ (A375 cells (parental); 1μΜ, in %) | further results
1 | NCC(=O)Nc1ccc(-n2nc(C(F)(F)F)cc2-c2ccc3c(ccc4ccccc43)c2)cc1 [OSU-03012] | – | – | – | – | – | – | – | – | – | – | – | – | – | – | Cell viability in kinase inhibitor library screening, IGR37 GP, 10μΜ ([1]; 10μΜ): 2.3%; Cell viability in kinase inhibitor library screening, IGR37 GP, 1μΜ ([1]; 1μΜ, in %): 99.0; Cell viability in kinase inhibitor library screening, IGR37 Parental, 10μΜ (IGR37 cells (parental); 10μΜ): 0.5; Cell viability in kinase inhibitor library screening, 501Mel Parental, 1μΜ (501Mel cells (parental); 1μΜ): 91.0; Cell viability in kinase inhibitor library screening, 501Mel Parental, 10μΜ (501Mel cells (parental); 10μΜ): 0.3; Cell viability in kinase inhibitor library screening, IGR37 XP, 10μΜ ([2]; 10μΜ): 1.4%; Cell viability in kinase inhibitor library screening, IGR37 XP, 1μΜ ([2]; 1μΜ, in %): 109.9; Cell viability in kinase inhibitor library screening, A375 GP, 1μΜ ([3]; 1μΜ): 89.7; Cell viability in kinase inhibitor library screening, A375 GP, 10μΜ ([3]; 10μΜ): 0.547; Cell viability in kinase inhibitor library screening, 501Mel XP, 1μΜ ([4]; 1μΜ): 90.0; Cell viability in kinase inhibitor library screening, 501Mel XP, 10μΜ ([4]; 10μΜ): -0.352; Cell viability in kinase inhibitor library screening, 501Mel GP, 1μΜ ([5]; 1μΜ): 94.0; Cell viability in kinase inhibitor library screening, 501Mel GP, 10μΜ ([5]; 10μΜ): -0.274; Cell viability in kinase inhibitor library screening, A375 XP, 1μΜ ([6]; 1μΜ): 91.6; Cell viability in kinase inhibitor library screening, A375 XP, 10μΜ ([6]; 10μΜ): 0.7; Cell viability in kinase inhibitor library screening, A375 Parental, 10μΜ (A375 cells (parental); 10μΜ): 0.756; Cell viability in kinase inhibitor library screening, A375 Parental, 1μΜ (A375 cells (parental); 1μΜ): 91.6
2 | COc1cccc(-c2cc(=O)c3ccccc3o2)c1N [PD98059] | 88.7% | 81.4 | 98.8 | 79.8 | 61.9% | 95.5 | 83.6 | 97.3 | 80.0 | 104.1 | 84.1 | 102.6 | 94.1 | 98.4 | cell viability, IGR37 GP, 1μΜ ([1]; 1μΜ, in %): 94.1
3 | COc1cc2ncnc(Nc3cccc(Br)c3)c2cc1OC.Cl [PD153035 HCl] | 73.7% | 42.8 | 107.0 | 38.0 | 30.6% | 106.0 | 105.2 | 99.4 | 16.6 | 110.1 | 28.5 | 108.7 | 97.5 | 108.8 | cell viability, IGR37 Parental, 1μΜ (IGR37 cells (parental); 1μΜ): 115.8; cell viability, IGR37 XP, 1μΜ ([2]; 1μΜ, in %): 82.2; cell viability, A375 Parental, 10μΜ (A375 cells (parental); 10μΜ, in %): 108.3
